According to patent US9623125B2, “Controlled synthesis of polyglutamates with low polydispersity and versatile architectures” (Fundacion de la Comunidad Valenciana “Centro De …, priority 2011, dated 2017):

Assay: Stability of NCA under different storage conditions
Assay type: physicochemical
Set-up: key: a “−” symbol means the monomer was found already polymerized/degraded; “+” means monomer was found to be stable
Protocol: Absence of HCl in the purified NCAs was confirmed by means of a silver nitrate solution. The presence of HCl can be identified by the precipitation of silver chloride when some drops of a solution 1M of AgNO3 are added to a solution of the monomer. The purity of the NCA is the main criteria to ensure long term storage. This issue was corroborated with stability studies of the NCA under different storage conditions.

## O=C(CCC1NC(=O)OC1=O)OCc1ccccc1 (centres unmarked) [NCA, Benzyl 3-(2,5-dioxooxazol-4-il)propanoate]
4° C., 5 d
  Stability of NCA on storage: +
4° C., 6 d
  Stability of NCA on storage: +
4° C., 8d
  Stability of NCA on storage: −
4° C., 10 d
  Stability of NCA on storage: −
4° C., 11 d
  Stability of NCA on storage: −
4° C., 20 d
  Stability of NCA on storage: −
4° C., 50 d
  Stability of NCA on storage: −
4° C./Ar, 5 d
  Stability of NCA on storage: +
4° C./Ar, 6 d
  Stability of NCA on storage: +
4° C./Ar, 7 d
  Stability of NCA on storage: +
4° C./Ar, 8d
  Stability of NCA on storage: +
4° C./Ar, 10 d
  Stability of NCA on storage: +
4° C./Ar, 11 d
  Stability of NCA on storage: +
R.T, 5 d
  Stability of NCA on storage: −
R.T, 6 d
  Stability of NCA on storage: −
R.T, 7 d
  Stability of NCA on storage: −
R.T, 8d
  Stability of NCA on storage: −
R.T, 10 d
  Stability of NCA on storage: −
R.T, 11 d
  Stability of NCA on storage: −
R.T, 20 d
  Stability of NCA on storage: −
R.T, 50 d
  Stability of NCA on storage: −
R.T/Ar, 6 d
  Stability of NCA on storage: −
R.T/Ar, 7 d
  Stability of NCA on storage: −
R.T/Ar, 8d
  Stability of NCA on storage: −
R.T/Ar, 10 d
  Stability of NCA on storage: −
R.T/Ar, 11 d
  Stability of NCA on storage: −
R.T/Ar, 20 d
  Stability of NCA on storage: −
R.T/Ar, 50 d
  Stability of NCA on storage: −
−23° C., 5 d
  Stability of NCA on storage: +
−23° C., 6 d
  Stability of NCA on storage: +
−23° C., 7 d
  Stability of NCA on storage: +
−23° C., 8d
  Stability of NCA on storage: +
−23° C., 10 d
  Stability of NCA on storage: +
−23° C., 11 d
  Stability of NCA on storage: +
−23° C., 20 d
  Stability of NCA on storage: +
−23° C., 50 d
  Stability of NCA on storage: +
−23° C./Ar, 5 d
  Stability of NCA on storage: +
−23° C./Ar, 6 d
  Stability of NCA on storage: +
−23° C./Ar, 7 d
  Stability of NCA on storage: +
−23° C./Ar, 8d
  Stability of NCA on storage: +
−23° C./Ar, 10 d
  Stability of NCA on storage: +
−23° C./Ar, 11 d
  Stability of NCA on storage: +
−23° C./Ar, 20 d
  Stability of NCA on storage: +
−23° C./Ar, 50 d
  Stability of NCA on storage: +
